Data taken from patent US8604192B2, “Cyclohexenyl nucleic acids analogs” (Isis Pharmaceuticals, Inc., priority 2008, dated 2013).

Key:
[1] = Liver transaminase levels (ALT) in serum, plasma chemistry analysis; format: in vivo, Balb/c mice; conditions: approximate serum level, mice, 48 hours; for ALT @ 3.2 mg/kg: single dose 3.2 mg/kg; for ALT @ 10 mg/kg: single dose 10 mg/kg; for ALT @ 32 mg/kg: single dose 32 mg/kg; for ALT @ 100 mg/kg: single dose 100 mg/kg
Description: (§1) Six week old Balb/c mice (Jackson Laboratory, Bar Harbor, Me.) were injected with a single dose of ASOs 464846 and 464847 targeted to PTEN at a dose of 3.2, 10, 32 and 100 mg/kg. The mice were sacrificed 48 hours following the last administration. Liver tissues were homogenized and mRNA levels were quantitated using real-time PCR using procedures illustrated herein for comparison to untreated control levels (% UTC). Plasma chemistry analysis was also completed. Tms were determined in 100 mM phosphate buffer, 0.1 mM EDTA, pH 7, at 260 nm using 4 μM of the gapped oligomeric compounds listed below and 4 μM of the complementary RNA.
Liver transaminase levels, alanine aminotranferease (ALT) and aspartate aminotransferase (AST), in serum were also measured relative to saline injected mice.

PTEN = test: 3-10-3 gapped oligomeric compounds targeted to PTEN: in vivo study, liver mRNA levels by real-time PCR; design: species or system Balb/c mice; conditions: estimated ED50 for liver PTEN mRNA reduction (% UTC); single dose of 3.2, 10, 32 and 100 mg/kg; sacrificed 48 hours after administration; calculated using Graphpad Prism
Text: Quantitation of target mRNA levels is accomplished by real-time quantitative PCR using the ABI PRISM™ 7600, 7700, or 7900 Sequence Detection System (PE-Applied Biosystems, Foster City, Calif.) according to manufacturer's instructions. This is a closed-tube, non-gel-based, fluorescence detection system which allows high-throughput quantitation of polymerase chain reaction (PCR) products in real-time. As opposed to standard PCR in which amplification products are quantitated after the PCR is completed, products in real-time quantitative PCR are quantitated as they accumulate. […] With each cycle, additional reporter dye molecules are cleaved from their respective probes, and the fluorescence intensity is monitored at regular intervals by laser optics built into the ABI PRISM™ Sequence Detection System. In each assay, a series of parallel reactions containing serial dilutions of mRNA from untreated control samples generates a standard curve that is used to quantitate the percent inhibition after antisense oligonucleotide treatment of test samples.
Prior to quantitative PCR analysis, primer-probe sets specific to the target gene being measured are evaluated for their ability to be “multiplexed” with a GAPDH amplification reaction. […]

[2] = tested on: complementary RNA (20-mer RNA); test: Tm of gapped oligomeric compound with complementary RNA; format: binding; conditions: 100 mM phosphate buffer, 0.1 mM EDTA, pH 7, 260 nm, 4 μM oligomeric compound and 4 μM complementary RNA
Description: as §1

Te^mCeTeTAG^mCA^mCTGGC^mCeTeTe (DNA TCTTAGCACTGGCCTT; all phosphorothioate, sugars by position and methylation of C not given here; 3-10-3 gapmer, wing nucleosides defined elsewhere, some cytosines 5-methylated) [05/464846]
ALT @ 3.2 mg/kg [1]: 38 | ALT @ 10 mg/kg [1]: 25 | ALT @ 32 mg/kg [1]: 22 | ALT @ 100 mg/kg [1]: 22 | ED50 (PTEN): 91 mg/kg | Tm (° C.) vs. 20-mer RNA [2]: 62.35 °C

Tf^mCfTfTAG^mCA^mCTGGC^mCfTfTf (DNA TCTTAGCACTGGCCTT; all phosphorothioate, sugars by position and methylation of C not given here; wing nucleosides modified (marked e), some C 5-methyl) [05/464847]
ALT @ 3.2 mg/kg [1]: 24 | ALT @ 10 mg/kg [1]: 23 | ALT @ 32 mg/kg [1]: 24 | ALT @ 100 mg/kg [1]: 284 | ED50 (PTEN): 22 mg/kg | Tm (° C.) vs. 20-mer RNA [2]: 64.37 °C
